# According to ChEMBL document CHEMBL4007384, “Synthesis and optimization of furano[3,2-d]pyrimidines as selective spleen tyrosine kinase (Syk) inhibitors” (Bioorg Med Chem Lett, 2016):
# Experiments:
# [1] = target: Platelet-derived growth factor receptor beta (Homo sapiens, UniProt P09619); assay: Inhibition of PDGFRB (unknown origin) after 60 mins by TR-FRET assay
# Activin receptor type-1 = target: T1, Activin receptor type-1 (Homo sapiens, UniProt Q04771); assay: Inhibition of ACVR1 (unknown origin) after 60 mins by TR-FRET assay
# T1 sequence (Q04771 whole entry): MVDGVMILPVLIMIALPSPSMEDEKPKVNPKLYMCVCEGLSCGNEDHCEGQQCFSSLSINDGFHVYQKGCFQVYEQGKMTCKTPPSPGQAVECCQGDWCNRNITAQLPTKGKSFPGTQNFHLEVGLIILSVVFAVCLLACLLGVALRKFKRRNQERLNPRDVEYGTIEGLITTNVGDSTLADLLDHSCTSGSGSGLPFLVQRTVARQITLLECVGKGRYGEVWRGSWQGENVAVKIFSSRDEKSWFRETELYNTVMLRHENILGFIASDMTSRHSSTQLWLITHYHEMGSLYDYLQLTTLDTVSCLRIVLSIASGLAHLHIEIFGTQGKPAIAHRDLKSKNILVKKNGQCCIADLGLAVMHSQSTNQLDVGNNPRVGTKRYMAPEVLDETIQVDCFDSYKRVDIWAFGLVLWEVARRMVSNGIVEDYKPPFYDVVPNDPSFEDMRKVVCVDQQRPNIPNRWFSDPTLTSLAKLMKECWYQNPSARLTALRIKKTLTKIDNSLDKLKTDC
# [2] = target: T2, Serine/threonine-protein kinase D3 (Homo sapiens, UniProt O94806); assay: Inhibition of Prkcn (unknown origin) after 60 mins by TR-FRET assay
# T2 sequence (O94806 whole entry): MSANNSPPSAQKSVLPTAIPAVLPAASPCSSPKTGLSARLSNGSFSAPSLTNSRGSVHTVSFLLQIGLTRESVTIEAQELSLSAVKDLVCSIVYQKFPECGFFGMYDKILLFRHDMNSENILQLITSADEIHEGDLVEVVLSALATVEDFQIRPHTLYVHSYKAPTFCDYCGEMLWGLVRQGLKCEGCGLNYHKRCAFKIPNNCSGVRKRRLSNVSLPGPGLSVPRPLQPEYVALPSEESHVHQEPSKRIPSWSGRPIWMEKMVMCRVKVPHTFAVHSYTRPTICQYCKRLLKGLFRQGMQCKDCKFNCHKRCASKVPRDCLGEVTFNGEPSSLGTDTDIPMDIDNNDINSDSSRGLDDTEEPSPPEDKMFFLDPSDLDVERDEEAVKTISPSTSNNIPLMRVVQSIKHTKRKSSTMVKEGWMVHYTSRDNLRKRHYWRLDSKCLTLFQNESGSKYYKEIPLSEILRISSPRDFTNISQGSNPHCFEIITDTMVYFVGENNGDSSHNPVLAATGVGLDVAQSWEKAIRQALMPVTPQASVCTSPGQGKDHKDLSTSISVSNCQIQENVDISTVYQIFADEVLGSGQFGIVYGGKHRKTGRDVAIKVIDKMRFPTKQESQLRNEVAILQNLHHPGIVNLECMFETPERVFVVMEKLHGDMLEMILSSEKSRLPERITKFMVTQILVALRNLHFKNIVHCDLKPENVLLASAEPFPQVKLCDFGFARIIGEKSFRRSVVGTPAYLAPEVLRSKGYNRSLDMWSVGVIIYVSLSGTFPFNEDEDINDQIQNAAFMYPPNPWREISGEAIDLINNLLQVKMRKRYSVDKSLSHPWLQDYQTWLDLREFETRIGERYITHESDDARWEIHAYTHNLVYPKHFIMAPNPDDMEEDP
# [3] = target: Tyrosine-protein kinase Fyn (Homo sapiens, UniProt P06241); assay: Inhibition of Fyn (unknown origin) after 60 mins by TR-FRET assay
# [4] = target: Casein kinase I isoform alpha (Homo sapiens, UniProt P48729); assay: Inhibition of CK1alpha1 (unknown origin) after 60 mins by TR-FRET assay
# [5] = target: G protein-coupled receptor kinase 5 (Homo sapiens, UniProt P34947); assay: Inhibition of GRK5 (unknown origin) after 60 mins by TR-FRET assay
# [6] = target: High affinity nerve growth factor receptor (Homo sapiens, UniProt P04629); assay: Inhibition of TRKA (unknown origin) after 60 mins by TR-FRET assay
# [7] = target: Platelet-derived growth factor receptor alpha (Homo sapiens, UniProt P16234); assay: Inhibition of PDGFRA (unknown origin) after 60 mins by TR-FRET assay
# [8] = target: T3, Tyrosine-protein kinase receptor TYRO3 (Homo sapiens, UniProt Q06418); assay: Inhibition of TYRO3 (unknown origin) after 60 mins by TR-FRET assay
# T3 sequence (Q06418 whole entry): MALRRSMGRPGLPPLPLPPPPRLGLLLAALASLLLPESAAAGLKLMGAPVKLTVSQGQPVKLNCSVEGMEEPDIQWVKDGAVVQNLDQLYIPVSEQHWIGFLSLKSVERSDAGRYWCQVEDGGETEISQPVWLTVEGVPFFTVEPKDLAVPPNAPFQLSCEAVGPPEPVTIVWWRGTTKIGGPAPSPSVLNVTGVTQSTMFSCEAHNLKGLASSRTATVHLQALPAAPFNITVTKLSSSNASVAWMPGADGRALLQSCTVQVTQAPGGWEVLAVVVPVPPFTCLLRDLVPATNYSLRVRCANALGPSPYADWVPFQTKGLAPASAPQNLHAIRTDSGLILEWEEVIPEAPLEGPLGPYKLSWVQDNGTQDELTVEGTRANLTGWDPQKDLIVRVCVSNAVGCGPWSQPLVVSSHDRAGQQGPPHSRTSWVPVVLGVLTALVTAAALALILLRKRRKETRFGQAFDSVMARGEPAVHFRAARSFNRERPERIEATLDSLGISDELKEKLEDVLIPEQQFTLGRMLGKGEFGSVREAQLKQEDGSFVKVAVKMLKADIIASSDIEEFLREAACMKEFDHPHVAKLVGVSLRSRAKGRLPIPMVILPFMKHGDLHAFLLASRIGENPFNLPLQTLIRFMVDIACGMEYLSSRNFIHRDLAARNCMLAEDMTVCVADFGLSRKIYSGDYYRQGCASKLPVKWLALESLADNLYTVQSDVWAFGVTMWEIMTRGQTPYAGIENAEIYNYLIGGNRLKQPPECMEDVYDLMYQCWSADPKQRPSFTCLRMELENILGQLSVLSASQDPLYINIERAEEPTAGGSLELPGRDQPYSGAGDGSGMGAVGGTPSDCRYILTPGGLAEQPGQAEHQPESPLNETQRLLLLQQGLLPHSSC
# [9] = Unbound clearance in rat microsomes; assay type: ADME, Microsome
# Focal adhesion kinase 1 = Focal adhesion kinase 1 (Homo sapiens, UniProt Q05397); assay: Inhibition of FAK (unknown origin) after 60 mins by TR-FRET assay
# Chain of Focal adhesion kinase 1 (Q05397 whole entry): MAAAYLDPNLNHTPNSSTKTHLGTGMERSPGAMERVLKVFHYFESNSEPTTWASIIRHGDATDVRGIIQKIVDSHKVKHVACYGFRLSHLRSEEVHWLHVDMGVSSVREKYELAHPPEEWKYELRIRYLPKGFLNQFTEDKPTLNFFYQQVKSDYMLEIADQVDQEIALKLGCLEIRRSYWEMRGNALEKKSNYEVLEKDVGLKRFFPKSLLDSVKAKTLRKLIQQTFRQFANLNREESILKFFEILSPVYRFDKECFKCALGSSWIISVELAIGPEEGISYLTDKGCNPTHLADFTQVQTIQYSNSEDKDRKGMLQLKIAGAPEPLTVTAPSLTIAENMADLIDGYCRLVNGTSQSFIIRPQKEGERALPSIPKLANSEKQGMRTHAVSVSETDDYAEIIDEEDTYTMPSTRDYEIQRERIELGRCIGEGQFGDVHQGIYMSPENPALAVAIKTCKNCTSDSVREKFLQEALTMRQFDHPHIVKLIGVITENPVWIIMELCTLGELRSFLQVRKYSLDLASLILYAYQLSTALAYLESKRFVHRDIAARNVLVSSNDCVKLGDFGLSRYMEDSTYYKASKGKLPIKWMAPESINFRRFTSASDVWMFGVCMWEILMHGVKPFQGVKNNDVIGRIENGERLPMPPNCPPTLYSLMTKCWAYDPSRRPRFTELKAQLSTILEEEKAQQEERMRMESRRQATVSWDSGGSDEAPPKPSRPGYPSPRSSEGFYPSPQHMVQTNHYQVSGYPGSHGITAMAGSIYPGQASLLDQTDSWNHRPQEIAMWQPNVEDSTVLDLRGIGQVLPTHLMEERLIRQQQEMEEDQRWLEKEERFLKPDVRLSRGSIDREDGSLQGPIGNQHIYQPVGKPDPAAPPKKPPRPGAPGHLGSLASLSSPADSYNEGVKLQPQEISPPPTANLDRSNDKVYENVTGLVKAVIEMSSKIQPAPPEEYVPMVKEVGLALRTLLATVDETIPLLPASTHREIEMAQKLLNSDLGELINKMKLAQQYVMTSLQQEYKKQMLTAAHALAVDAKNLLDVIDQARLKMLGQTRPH
# Chain of Platelet-derived growth factor receptor alpha (P16234 whole entry): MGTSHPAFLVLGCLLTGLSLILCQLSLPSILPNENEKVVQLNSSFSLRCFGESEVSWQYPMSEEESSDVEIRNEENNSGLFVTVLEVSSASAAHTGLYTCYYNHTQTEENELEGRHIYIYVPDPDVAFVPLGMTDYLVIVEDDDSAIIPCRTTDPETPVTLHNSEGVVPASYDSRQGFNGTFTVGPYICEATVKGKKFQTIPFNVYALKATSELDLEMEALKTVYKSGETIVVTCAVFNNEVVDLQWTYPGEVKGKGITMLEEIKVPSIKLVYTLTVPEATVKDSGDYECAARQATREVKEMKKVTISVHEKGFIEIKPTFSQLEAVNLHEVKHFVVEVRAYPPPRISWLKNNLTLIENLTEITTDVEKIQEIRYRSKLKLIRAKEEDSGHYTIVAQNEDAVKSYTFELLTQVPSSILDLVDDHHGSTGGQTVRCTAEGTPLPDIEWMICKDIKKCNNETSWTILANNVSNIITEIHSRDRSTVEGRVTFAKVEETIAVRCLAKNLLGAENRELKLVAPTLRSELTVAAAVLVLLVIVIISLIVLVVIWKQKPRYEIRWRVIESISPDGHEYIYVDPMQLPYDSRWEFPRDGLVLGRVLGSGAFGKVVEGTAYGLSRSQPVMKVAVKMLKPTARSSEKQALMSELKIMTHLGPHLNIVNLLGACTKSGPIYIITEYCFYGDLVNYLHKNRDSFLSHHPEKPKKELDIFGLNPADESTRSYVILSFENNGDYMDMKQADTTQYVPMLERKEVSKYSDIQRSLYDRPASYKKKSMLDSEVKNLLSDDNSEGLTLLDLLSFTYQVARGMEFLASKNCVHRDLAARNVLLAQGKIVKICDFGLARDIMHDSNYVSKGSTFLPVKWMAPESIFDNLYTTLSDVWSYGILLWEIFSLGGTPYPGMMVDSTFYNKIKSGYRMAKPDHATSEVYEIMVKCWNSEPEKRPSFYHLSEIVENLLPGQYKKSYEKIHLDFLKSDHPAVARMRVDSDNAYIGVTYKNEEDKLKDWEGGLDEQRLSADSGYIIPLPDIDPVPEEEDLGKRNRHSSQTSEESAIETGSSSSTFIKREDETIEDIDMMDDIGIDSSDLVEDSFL
# Chain of G protein-coupled receptor kinase 5 (P34947 whole entry): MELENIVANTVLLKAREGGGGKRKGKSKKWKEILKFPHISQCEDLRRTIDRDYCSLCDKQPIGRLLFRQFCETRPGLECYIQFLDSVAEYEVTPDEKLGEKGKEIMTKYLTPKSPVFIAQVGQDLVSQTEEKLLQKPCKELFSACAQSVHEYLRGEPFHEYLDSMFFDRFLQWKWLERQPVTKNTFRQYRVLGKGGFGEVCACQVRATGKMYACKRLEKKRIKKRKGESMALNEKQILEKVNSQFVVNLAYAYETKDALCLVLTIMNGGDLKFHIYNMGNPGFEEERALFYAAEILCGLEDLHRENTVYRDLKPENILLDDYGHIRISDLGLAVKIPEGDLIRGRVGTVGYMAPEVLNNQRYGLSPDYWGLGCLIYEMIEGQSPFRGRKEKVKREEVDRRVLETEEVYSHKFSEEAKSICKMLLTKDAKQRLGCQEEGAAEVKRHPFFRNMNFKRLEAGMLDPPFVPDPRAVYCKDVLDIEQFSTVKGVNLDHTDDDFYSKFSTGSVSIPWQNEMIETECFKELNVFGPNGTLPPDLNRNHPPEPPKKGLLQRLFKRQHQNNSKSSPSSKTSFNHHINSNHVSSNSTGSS
# Chain of Casein kinase I isoform alpha (P48729 whole entry, canonical isoform): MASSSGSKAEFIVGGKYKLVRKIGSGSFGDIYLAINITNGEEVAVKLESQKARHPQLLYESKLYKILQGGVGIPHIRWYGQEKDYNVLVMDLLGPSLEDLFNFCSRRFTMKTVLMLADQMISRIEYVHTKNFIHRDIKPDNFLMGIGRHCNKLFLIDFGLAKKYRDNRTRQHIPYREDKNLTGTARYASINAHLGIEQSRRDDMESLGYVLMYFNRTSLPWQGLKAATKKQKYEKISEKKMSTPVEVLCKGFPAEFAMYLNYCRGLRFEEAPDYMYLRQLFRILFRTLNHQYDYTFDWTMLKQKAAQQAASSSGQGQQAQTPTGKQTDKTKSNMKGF
# Chain of Tyrosine-protein kinase Fyn (P06241 whole entry, canonical isoform): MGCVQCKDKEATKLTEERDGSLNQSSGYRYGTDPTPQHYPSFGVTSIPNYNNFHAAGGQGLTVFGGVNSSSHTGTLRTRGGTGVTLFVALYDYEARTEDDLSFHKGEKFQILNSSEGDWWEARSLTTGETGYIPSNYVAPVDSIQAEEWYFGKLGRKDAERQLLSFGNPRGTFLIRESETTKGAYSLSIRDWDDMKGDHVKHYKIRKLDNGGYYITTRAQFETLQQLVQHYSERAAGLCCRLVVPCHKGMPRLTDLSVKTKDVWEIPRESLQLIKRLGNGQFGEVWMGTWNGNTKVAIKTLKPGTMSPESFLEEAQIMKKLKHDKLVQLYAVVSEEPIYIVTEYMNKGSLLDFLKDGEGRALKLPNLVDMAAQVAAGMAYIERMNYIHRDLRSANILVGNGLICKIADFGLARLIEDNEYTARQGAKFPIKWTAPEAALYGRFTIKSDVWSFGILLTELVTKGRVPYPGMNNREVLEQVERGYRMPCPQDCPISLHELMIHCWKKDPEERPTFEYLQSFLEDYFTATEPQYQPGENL
# Chain of Platelet-derived growth factor receptor beta (P09619 whole entry): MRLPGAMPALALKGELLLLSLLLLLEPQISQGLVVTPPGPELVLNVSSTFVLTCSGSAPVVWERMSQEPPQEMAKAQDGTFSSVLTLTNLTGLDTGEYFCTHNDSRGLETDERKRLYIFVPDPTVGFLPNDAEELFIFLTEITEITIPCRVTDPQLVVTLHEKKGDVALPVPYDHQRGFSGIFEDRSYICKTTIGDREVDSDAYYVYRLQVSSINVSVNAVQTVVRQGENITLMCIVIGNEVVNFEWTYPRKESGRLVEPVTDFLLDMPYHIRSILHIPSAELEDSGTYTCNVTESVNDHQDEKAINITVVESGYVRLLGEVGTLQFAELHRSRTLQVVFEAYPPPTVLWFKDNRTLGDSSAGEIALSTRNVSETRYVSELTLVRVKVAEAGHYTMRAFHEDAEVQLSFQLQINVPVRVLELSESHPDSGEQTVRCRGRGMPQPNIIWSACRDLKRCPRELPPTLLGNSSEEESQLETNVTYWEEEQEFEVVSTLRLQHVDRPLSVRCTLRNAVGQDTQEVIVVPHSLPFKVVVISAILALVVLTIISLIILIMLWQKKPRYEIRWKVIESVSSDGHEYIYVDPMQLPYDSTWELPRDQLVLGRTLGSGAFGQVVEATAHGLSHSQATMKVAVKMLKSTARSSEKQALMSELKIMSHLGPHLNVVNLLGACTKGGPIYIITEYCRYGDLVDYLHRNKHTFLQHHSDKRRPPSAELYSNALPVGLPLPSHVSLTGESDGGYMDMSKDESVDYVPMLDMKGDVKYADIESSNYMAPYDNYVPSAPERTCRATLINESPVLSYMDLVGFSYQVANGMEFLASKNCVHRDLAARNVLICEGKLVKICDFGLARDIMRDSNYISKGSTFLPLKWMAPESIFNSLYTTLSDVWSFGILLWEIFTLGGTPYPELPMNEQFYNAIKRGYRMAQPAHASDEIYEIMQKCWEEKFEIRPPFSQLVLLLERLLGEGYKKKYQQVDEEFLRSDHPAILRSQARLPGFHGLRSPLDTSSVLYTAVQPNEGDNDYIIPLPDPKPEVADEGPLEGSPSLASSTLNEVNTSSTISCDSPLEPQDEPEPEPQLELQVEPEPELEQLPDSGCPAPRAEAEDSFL
SMILES,IC50 [1] [µM],IC50 (Activin receptor type-1) [µM],IC50 [2] [µM],IC50 [3] [µM],IC50 [4] [µM],IC50 [5] [µM],IC50 [6] [µM],IC50 [7] [µM],IC50 [8] [µM],CL free [9] [mL/min/kg],IC50 (Focal adhesion kinase 1) [µM]
Cc1n[nH]c2cc(Nc3nc(NC4CC4)c4occc4n3)ccc12,> 10,> 10,> 10,5.96,7.54,9.96,> 10,> 10,4.14,–,–
FC(F)(F)CNc1nc(Nc2ccc3cn[nH]c3c2)nc2ccoc12,> 10,> 10,> 10,–,–,8.12,> 10,> 10,3.21,255,> 10
CC1(C)OCC(=O)Nc2cc(Nc3nc(NCC(F)(F)F)c4occc4n3)ccc21,5.19,> 10,> 10,0.201,> 10,> 10,5.4,5.59,> 10,< 81.7,5.5
FC(F)(F)CNc1nc(Nc2ccc(N3CCOCC3)c(Cl)c2)nc2ccoc12,> 10,> 10,> 10,1.51,> 10,> 10,> 10,> 10,> 10,1600,> 10
